Measured values published in patent publication US20240116985A1, “STAPLED PEPTIDES AND METHODS THEREOF” (priority 2020, published 2024).
In brackets after ≈: the same amount, converted by molar mass. Read-outs that look alike come from different tables or passages of the source.

Tests used:
[1] = CHI Log D procedure; format: physicochemical
[2] = molecular target: T1, full-length beta-Catenin (Uniprot ID P35222) (Homo sapiens, UniProt P35222); assay: Fluorescence polarization IC50 (beta-catenin / 5FAM-TCF4 10-53 competition); format: binding; conditions: read-out: beta-Catenin FP IC50
T1 construct: 10 nM full-length beta-Catenin (Uniprot ID P35222)
T1 sequence (P35222 1-781): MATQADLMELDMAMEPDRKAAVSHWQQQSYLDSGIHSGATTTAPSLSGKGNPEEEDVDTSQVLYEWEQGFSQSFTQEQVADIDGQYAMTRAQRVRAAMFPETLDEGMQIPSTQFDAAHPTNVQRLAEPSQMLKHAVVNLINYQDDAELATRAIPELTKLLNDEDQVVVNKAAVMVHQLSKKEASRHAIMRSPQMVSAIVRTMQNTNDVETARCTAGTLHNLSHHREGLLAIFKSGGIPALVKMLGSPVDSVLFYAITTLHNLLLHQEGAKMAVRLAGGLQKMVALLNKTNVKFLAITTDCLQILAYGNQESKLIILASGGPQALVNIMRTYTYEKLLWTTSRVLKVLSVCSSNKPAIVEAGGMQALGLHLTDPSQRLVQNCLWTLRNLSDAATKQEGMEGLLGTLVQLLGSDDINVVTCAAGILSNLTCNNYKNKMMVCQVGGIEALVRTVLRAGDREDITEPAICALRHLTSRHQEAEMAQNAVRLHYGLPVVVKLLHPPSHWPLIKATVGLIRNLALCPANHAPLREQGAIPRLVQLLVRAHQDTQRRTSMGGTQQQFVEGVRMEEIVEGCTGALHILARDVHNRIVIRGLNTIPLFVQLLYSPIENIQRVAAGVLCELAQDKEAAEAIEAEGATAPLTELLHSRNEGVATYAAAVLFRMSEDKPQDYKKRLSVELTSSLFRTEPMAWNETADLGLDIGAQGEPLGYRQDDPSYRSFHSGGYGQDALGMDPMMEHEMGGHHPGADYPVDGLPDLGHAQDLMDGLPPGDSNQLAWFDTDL

[3] = molecular target: T2, beta-catenin/TCF4 engagement (Homo sapiens, UniProt P35222); assay: Nano-BRET target engagement assay (B-cat-Halo & TCF4-Luc in HEK293 cells); format: cell-based
T2 construct: expressed in transfected cells; host or cells: HEK293
T2 sequence (P35222 1-781): T1 sequence (P35222 1-781)

[4] = Solubility in PBS; format: physicochemical
Procedure, shortened: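 Read-out is the HPLC peak area of the supernatant from ultracentrifuged PBS solution, scaled against a 50 μM peptide DMSO injection; value reported as [(PBS area)/(DMSO area)]*50 uM.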

[5] = absolute IC50, read-out: NanoBRET Abs IC50

SMILES | chromatographic logD ([1]; pH 7.4, CHI Log D) | IC50 [2] | IC50 ([3]; read-out: NanoBRET Abs IC50) | Solubility [4] | IC50 [3, 5] | Solubility ([4]; Solubility (uM)) | other results
CC(=O)N1CCC[C@]12CC=CCCCC1(CCCC=CCCCOC(=O)N3CC[C@@](C(=O)N[C@@H](Cc4csc5ccccc45)C(=O)N[C@@H](Cc4csc5ccccc45)C(=O)N[C@@H](Cc4c[nH]cn4)C(N)=O)(C3)NC(=O)[C@H](CC(N)=O)NC(=O)[C@H](Cc3ccccc3)NC(=O)[C@H](C)NC(=O)[C@H](C)NC(=O)[C@H](CC(=O)O)NC(=O)[C@H](CC(=O)O)NC1=O)NC(=O)[C@H](CC(C)(C)C)NC(=O)[C@H](CC(=O)O)NC2=O (stereo partly drawn) [I-793, Ac-PL3-Asp-Npg-B5-Asp-Asp-Ala-Ala-Phe-Asn-PyrS2-BztA-BztA-His-NH2] | 2.39 | 0.014 µM | > 20 µM | 10 µM (≈ 19.8 µg/mL) |  |  | 
C[C@@H]1NC(=O)[C@H](C)NC(=O)[C@H](CN(CC(=O)O)CC(F)(F)F)NC(=O)[C@H](CC(=O)O)NC(=O)C2(CCCC=CCCCOC(=O)N3CC[C@@](C(=O)N[C@@H](Cc4ccsc4)C(=O)N[C@@H](Cc4csc5ccccc45)C(=O)N[C@@H](CCC(N)=O)C(N)=O)(C3)NC(=O)[C@H](CC(N)=O)NC(=O)[C@H](Cc3ccccc3)NC1=O)CCCC=CC[C@]1(CCCN1C(=O)CN=[N+]=[N-])C(=O)N[C@@H](CC(=O)O)C(=O)N[C@@H](CC(C)(C)C)C(=O)N2 (stereo partly drawn) [I-1054, AzAc-PL3-Asp-Npg-B5-Asp-TfeGA-Ala-Ala-Phe-Asn-PyrS2-3Thi-BztA-Gln-NH2] |  |  |  | 46 µM (≈ 95.2 µg/mL) |  |  | chromatographic logD ([1]; pH 7.4): 2.19; IC50 ([3]; NanoBRET Abs IC50 (uM), absolute IC50): > 20 µM

Further lines, with some results ahead:

chromatographic logD ([1]; pH 7.4, CHI Log D) | IC50 [2] | IC50 ([3]; read-out: NanoBRET Abs IC50) | Solubility [4] | IC50 [3, 5] | Solubility ([4]; Solubility (uM)) | SMILES | other results
1.7 | 0.005 µM |  |  | > 20 µM | 30 µM (≈ 63.4 µg/mL) | CC(=O)N1CCC[C@]12CC=CCCCC1(CCCC=CCCCOC(=O)N3CC[C@@](C(=O)N[C@@H](Cc4ccccc4Cl)C(=O)N[C@@H](Cc4csc5ccccc45)C(=O)N[C@@H](CCC(N)=O)C(N)=O)(C3)NC(=O)[C@H](CC(N)=O)NC(=O)[C@H](Cc3ccccc3)NC(=O)[C@H](CCCCN)NC(=O)[C@H](C)NC(=O)[C@H](CN(CC(=O)O)CC(F)(F)F)NC(=O)[C@H](CC(=O)O)NC1=O)NC(=O)[C@H](CC(C)(C)C)NC(=O)[C@H](CC(=O)O)NC2=O (stereo partly drawn) [I-1006, Ac-PL3-Asp-Npg-B5-Asp-TfeGA-Ala-Lys-Phe-Asn-PyrS2-2C1F-BztA-Gln-NH2] | 
1.68 | 0.032 µM | > 20 µM |  |  | 43 µM (≈ 82.5 µg/mL) | CC(=O)N1CCC[C@]12CC=CCCCC1(CCCC=CCCCOC(=O)N3CC[C@@](C(=O)N[C@@H](Cc4cscn4)C(=O)N[C@@H](Cc4csc5ccccc45)C(=O)N[C@@H](CCC(N)=O)C(N)=O)(C3)NC(=O)[C@H](CC(N)=O)NC(=O)[C@H](Cc3ccccc3)NC(=O)[C@H](C)NC(=O)[C@H](C)NC(=O)[C@H](CC(=O)O)NC(=O)[C@H](CC(=O)O)NC1=O)NC(=O)[C@H](CC(C)(C)C)NC(=O)[C@H](CC(=O)O)NC2=O (stereo partly drawn) [I-811, Ac-PL3-Asp-Npg-B5-Asp-Asp-Ala-Ala-Phe-Asn-PyrS2-4Thz-BztA-Gln-NH2] | 
2.33 |  |  |  | 11.6 µM | 48 µM (≈ 93.1 µg/mL) | CC(=O)N1CCC[C@]12CC=CCCCC1(CCCC=CCCCCCC[C@@](C)(C(=O)N[C@@H](Cc3ccccc3)C(=O)N[C@@H](Cc3csc4ccccc34)C(=O)N[C@@H](CCC(N)=O)C(=O)N[C@H](C)C(N)=O)NC(=O)[C@H](CC(N)=O)NC(=O)[C@H](Cc3ccccc3)NC(=O)[C@H](C)NC(=O)[C@H](C)NC(=O)[C@H](CCC(=O)O)NC(=O)[C@H](CC(=O)O)NC1=O)NC(=O)[C@H](CC(C)C)NC(=O)[C@H](CC(=O)O)NC2=O (stereo partly drawn) [I-731, Ac-PL3-Asp-Leu-B5-Asp-Glu-Ala-Ala-Phe-Asn-S8-Phe-BztA-Gln-dAla-NH2] | IC50 ([2]; fluorescence polarization): 0.034 µM
 |  |  | 46 µM (≈ 76.6 µg/mL) |  |  | CC(=O)N1CCC[C@]12CC=CCCCC1(CCCC=CCCCCCC[C@@](C)(C(=O)N[C@@H](Cc3ccccc3)C(=O)N[C@@H](C)C(=O)N[C@@H](CCC(N)=O)C(N)=O)NC(=O)[C@H](C(C)C)NC(=O)[C@H](Cc3ccccc3)NC(=O)[C@H](C)NC(=O)[C@H](C)NC(=O)[C@H](CC(=O)O)NC(=O)[C@H](CC(=O)O)NC1=O)NC(=O)[C@H](C)NC(=O)[C@H](CC(=O)O)NC2=O (stereo partly drawn) [I-357, Ac-PL3-Asp-Ala-B5-Asp-Asp-Ala-Ala-Phe-Val-S8-Phe-Ala-Gln-NH2] | CHI Log D ([1]; pH 7.4): 1.852; inhibition at 10 µM ([3]; HEK293, 10 uM, read-out: NanoBRET % inh @ 10 uM): -5.3%
